Results taken from PubChem BioAssay AID1963829 (Molecular Pharmacology Branch, DTP, NCI, 2024).

Test system: 935938-334-R-J1-PDC complex spheroid viability
Test: Anticancer human tumor 935938-334-R-J1-PDC patient-derived small intestine adenocarcinoma cell line growth inhibition [POLQ]
Details: for IC50: curve of first compound; for viability, T/C: stronger effect = lower value; active means viability on the fitted dose curve at most 10% of control; inactive means the rest
Procedure, shortened: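 Patient-derived tumour cells were co-cultured with HUVEC and mesenchymal stem cells as multicellular spheroids at 37 °C. They were treated with POLQ inhibitors (novobiocin, ART-558, RP6685) alone or combined with other agents. Top concentrations were at or near clinical Cmax (otherwise 10 microM; SN-38 at 1 microM), decreasing in half-log steps.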
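Further: spheroids exposed to drugs for seven days before viability read.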
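Wherever viability, T/C is given: 100% = DMSO vehicle control wells.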

C=CCn1c(=O)c2cnc(Nc3ccc(N4CCN(C)CC4)cc3)nc2n1-c1cccc(C(C)(C)O)n1 + Nc1ccc(C#CCN(C(=O)Cc2ncc(C(F)(F)F)cc2C(F)(F)F)c2ccc(F)cc2)nn1
478 nM: IC50 (second compound 10 µM)
592 nM: IC50 (second compound 0.316 µM)
534 nM: IC50 (second compound 0.0316 µM)
273 nM: IC50 (second compound 1 µM)
661 nM: IC50 (second compound 0.1 µM)
inactive: viability, T/C (second compound 0.0316 µM, first compound 0.00316 µM) 90.4% | viability, T/C (second compound 0.0316 µM, first compound 0.01 µM) 93.5% | viability, T/C (second compound 0.0316 µM, first compound 0.0316 µM) 73.8% | viability, T/C (second compound 0.0316 µM, first compound 0.1 µM) 79.8% | viability, T/C (second compound 0.0316 µM, first compound 0.316 µM) 77.2% | viability, T/C (second compound 0.0316 µM, first compound 1 µM) 19.1% | viability, T/C (second compound 0.1 µM, first compound 0.00316 µM) 76.5% | viability, T/C (second compound 0.1 µM, first compound 0.01 µM) 81.3% | viability, T/C (second compound 0.1 µM, first compound 0.0316 µM) 92.6% | viability, T/C (second compound 0.1 µM, first compound 0.1 µM) 96.6% | viability, T/C (second compound 0.1 µM, first compound 0.316 µM) 89.5% | viability, T/C (second compound 0.1 µM, first compound 1 µM) 29.1% | viability, T/C (second compound 0.316 µM, first compound 0.00316 µM) 85.8% | viability, T/C (second compound 0.316 µM, first compound 0.01 µM) 70.4% | viability, T/C (second compound 0.316 µM, first compound 0.0316 µM) 72.1% | viability, T/C (second compound 0.316 µM, first compound 0.1 µM) 99.6% | viability, T/C (second compound 0.316 µM, first compound 0.316 µM) 77.1% | viability, T/C (second compound 0.316 µM, first compound 1 µM) 26.2% | viability, T/C (second compound 1 µM, first compound 0.00316 µM) 80% | viability, T/C (second compound 1 µM, first compound 0.01 µM) 105% | viability, T/C (second compound 1 µM, first compound 0.0316 µM) 82.3% | viability, T/C (second compound 1 µM, first compound 0.1 µM) 107% | viability, T/C (second compound 1 µM, first compound 0.316 µM) 43.6% | viability, T/C (second compound 1 µM, first compound 1 µM) 25.4% | viability, T/C (second compound 3.16 µM, first compound 0.00316 µM) 95.9% | viability, T/C (second compound 3.16 µM, first compound 0.01 µM) 79.3% | viability, T/C (second compound 3.16 µM, first compound 0.0316 µM) 61.8% | viability, T/C (second compound 3.16 µM, first compound 0.1 µM) 85.4% | viability, T/C (second compound 3.16 µM, first compound 0.316 µM) 88.7% | viability, T/C (second compound 3.16 µM, first compound 1 µM) 24.3% | viability, T/C (second compound 10 µM, first compound 0.00316 µM) 96.7% | viability, T/C (second compound 10 µM, first compound 0.01 µM) 82.6% | viability, T/C (second compound 10 µM, first compound 0.0316 µM) 118% | viability, T/C (second compound 10 µM, first compound 0.1 µM) 81.3% | viability, T/C (second compound 10 µM, first compound 0.316 µM) 65.4% | viability, T/C (second compound 10 µM, first compound 1 µM) 25.2%
601 nM: IC50 (second compound 3.16 µM)
